Source: patent US7067520B2, “Preventive or therapeutic medicines for diabetes containing fused-heterocyclic compounds or their salts” (Ishihara Sangyo Kaisha, Ltd., priority 2000, dated 2006)

Legend:
L6 cells = assay: Glucose uptake test by L6 cells; format: cell-based; conditions: Rattus norvegicus, 1 hour, 2-deoxy-[3H]-glucose uptake, control (MEM solvent alone) = 100%, read-out: Ratio activity (%); for activity at 10 µg/mL: treatment concentration 10 μg/ml; for activity at 100 µg/mL: treatment concentration 100 μg/ml
Experimental: Glucose Uptake Test by L6 Cells
Each of compounds under test was applied to L6 cells (rat cells originally derived from skeletal muscles) by the following method to measure the stimulating effect on glucose uptake. Namely, L6 cells were suspended in α-minimum essential medium (hereinafter referred to simply as MEM) containing 10% fetal bovine serum (hereinafter referred to simply as FBS), and inoculated into a 96-well plastic plate in an amount of 5×10^4 cells/well and cultivated in an incubator (5% carbon dioxide gas, 37° C.) until the cells grew all over the well. Then, the culture medium was switched to MEM solution containing 2% BS, followed by cultivation further for from 7 to 10 ays (the culture medium was exchanged every three days) to differentiate the cells into skeletal muscle cells. Then, the culture medium was replaced with MEM solution without FBS, followed by cultivation for three hours, and then the compound under test prepared to a treatment concentration (diluted with MEM solution without FBS) was reacted with the skeletal muscle cells at 37° C. for 1 hour. The cells were washed with Krebs-Henseleit-Ringer buffer solution (hereinafter referred to simply as KHR buffer solution), and 2-deoxy-[^3H]-glucose was added to the cells in the KHR buffer solution, followed by treatment at 37° C. for 10 minutes. The treatment solution was removed, the cells were washed with the KHR buffer solution, then the cells were dissolved in a 1N sodium hydroxide solution in an appropriate amount, and the [^3H] radio activity was measured by means of a liquid scintillation counter (cpm) The percentage of the glucose uptake was represented by the percentage of radio activity when the compound under test was applied, taking the radio activity of the control (the MEM solvent alone was applied) as 100%. Each of the compounds as identified in Table 27 was used for treatment at a concentration of each of 10 μg/ml and 100 μg/ml to examine the stimulating effect on glucose uptake.

KK-Ay/Ta mice = assay: Test for hypoglycemic effect in KK-Ay/Ta mice; format: in vivo; conditions: 50 mg/kg single oral dose, percentage to level before administration, significant vs vehicle control (P≦0.05)
Experimental: Using KK-Ay/Ta mice (purchased from CLEA Japan, Inc.) as spontaneous diabetic type II, the hypoglycemic effect of each of compounds under test was confirmed by the following method.
Male KK-Ay/Ta mice sufficiently preliminarily bred and acclimatized were classified into groups, each consisting of six mice, and each of the compounds under test was administered. Each of the compounds under test as suspended in 0.5% carboxymethyl cellulose (manufactured by Nacalai Tesque), and each compound was orally administered singly in a dose of 50 mg/kg (10 ml/kg) by means of an oral conductor. At the same time, as a group of vehicle control, 0.5% carboxymethyl cellulose was administered in the same volume (10 ml/kg) as for the group of administration of compound under test.
Collection of blood was carried out by the following method before the administration of each of the compounds under test or the vehicle, and at the time as identified in Table 28 after the administration. The tail vein of each mouse was shallowly cut by the edge of a razor to cause bleeding in an amount of blood of from 10 to 20 μL, and the blood was collected by a micropipet. The collected blood samples were immediately mixed with a heparin solution (20 U/ml) (manufactured by Mochida Yakuhin) in the same amount as the respective collected blood samples, and subjected to centrifugation at 4° C. for 5 minutes (10,000 rpm) by means of a cooling centrifugal machine. The plasma after the centrifugation was obtained as a sample for blood glucose level measurement.
The blood glucose level was measured by means of glucose oxidase method, and measured by using a commercially available assay kit (Glucose CII TEST WAKO, manufactured by Wako Pure Chemical Industries, Ltd.). Measurement was carried out on the day after the collection of blood, and the obtained plasma was stored at −20° C. before the measurement.
The blood glucose level at the time of collection of blood was calculated as the percentage to the blood glucose level before administration of the compound under test, and the hypoglycemic effect of the compound under test was evaluated by comparison with the change of the blood glucose level (percentage) of the group of vehicle control at the time of collection of blood. The evaluation results of the hypoglycemic effect are considered to have a significant difference compared with the vehicle control by means of Wilcoxon's rank sum test (P≦0.05)

melting point	Compound	activity at 10 µg/mL (L6 cells) [%]	activity at 100 µg/mL (L6 cells) [%]	Rate of change of blood glucose level (KK-Ay/Ta mice; after 3 hours) [%]	Rate of change of blood glucose level (KK-Ay/Ta mice; after 6 hours) [%]
153 to 154 °C	CSc1nc2ccnn2c(NCc2ccncc2)c1C#N [Compound No. 3, 7-(4-pyridylmethyl)amino-5-methylthiopyrazolo[1,5-a]pyrimidine-6-carbonitrile]	> 115	> 115	78	–
157 to 158 °C	CSc1nc2ccnn2c(NCC2OCCO2)c1C#N [compound 8]	–	> 115	–	68
232 °C	CSc1nc2cc(-c3ccccc3)nn2c(NCc2ccncc2)c1C#N [compound 48]	–	> 115	–	–
159 °C	CSc1nc2ccnn2c(NCc2ccc(C)cc2)c1C#N [compound 50]	> 115	> 115	74	–
183 °C	C#CCOc1c(C#N)c(SC)nc2ccnn12 [compound 53]	–	> 115	–	–
162 to 163 °C	C#CCNc1c(S(=O)(=O)c2ccccc2)c(SC)nc2ccnn12 [compound 60]	> 115	–	–	–
175 °C	C#CCNc1nc(SC)nc2ccnn12 [compound 64]	> 115	–	–	–
196 to 196.4 °C	CCSc1nc2ccnn2c(NCc2ccncc2)c1C#N [compound 68]	> 115	> 115	–	–
187.8 to 189.2 °C (dec.)	N#Cc1c(SCc2ccccc2)nc2ccnn2c1NCc1ccncc1 [compound 71]	> 115	> 115	–	–
118 °C	CSc1nc2ccnn2c(NC2CCCC2)c1C#N [compound 79]	> 115	–	–	–
195 to 196 °C	CSc1nc2ccnn2c(Nc2ccccc2)c1C#N [compound 80]	> 115	–	–	–
188 °C	CSc1nc2ccnn2c(NCCC#N)c1C#N [compound 82]	> 115	–	–	–
144 to 146 °C	CSc1nc2ccnn2c(NCCCn2ccnc2)c1C#N [compound 83]	–	> 115	–	–
153.4 to 155.4 °C	N#Cc1c(SC2CCCC2)nc2ccnn2c1NCc1ccncc1 [compound 105]	> 115	–	–	–
164 to 165.5 °C (dec.)	COCSc1nc2ccnn2c(NCc2ccncc2)c1C#N [compound 108]	–	> 115	–	–
160 to 161.6 °C	CCOCSc1nc2ccnn2c(NCc2ccncc2)c1C#N [compound 118]	> 115	> 115	–	–
124.5 to 126.5 °C	COC(=O)c1c(SC)nc2ccnn2c1NCc1ccccc1 [compound 120]	> 115	–	–	–
158.5 to 160.5 °C	COC(=O)c1c(SC)nc2ccnn2c1NCc1ccccc1 [compound 121]	–	> 115	–	–
154 to 155 °C	CSc1nc2ccnn2c(NCc2ccncc2)c1[N+](=O)[O-] [compound 126]	> 115	–	–	–
126.5 to 127.5 °C	COC(=O)c1c(SC)nc2ccnn2c1NOC1OCCO1 [compound 133]	> 115	–	–	–
148.8 to 149.6 °C	COc1nc2ccnn2c(NCc2ccccc2)c1C#N [compound 135]	> 115	> 115	–	–
148.3 to 149.7 °C	COc1nc2ccnn2c(NCC2OCCO2)c1C#N [compound 136]	> 115	> 115	–	–
275 to 276 °C	CSc1nc2ccnn2c(Nc2ccc(Cl)cc2)c1C#N [compound 161]	> 115	–	–	–

melting point	Compound	activity at 10 µg/mL (L6 cells) [%]	activity at 100 µg/mL (L6 cells) [%]	Rate of change of blood glucose level (KK-Ay/Ta mice; after 3 hours) [%]	Rate of change of blood glucose level (KK-Ay/Ta mice; after 6 hours) [%]
201 to 202 °C	CSc1nc2ccnn2c(Nc2ccccc2Cl)c1C#N [compound 163]	> 115	–	–	–
201 to 202 °C	CSc1nc2ccnn2c(Nc2ccc(C)cc2)c1C#N [compound 164]	> 115	–	–	–
280 to 281 °C	CSc1nc2ccnn2c(Nc2ccc(C#N)cc2)c1C#N [compound 168]	> 115	> 115	–	–
177 to 178 °C	CSc1nc2ccnn2c(NOCc2ccccc2)c1C#N [compound 172]	> 115	> 115	–	–
129 to 130 °C	C=CCONc1c(C#N)c(SC)nc2ccnn12 [compound 174]	–	> 115	–	–
175 to 176 °C	CSc1nc2ccnn2c(Nc2cc(C)ns2)c1C#N [compound 177]	–	> 115	–	–
214 to 215 °C	CSc1nc2ccnn2c(Nc2cccnc2)c1C#N [compound 178]	> 115	> 115	–	–
155 to 156 °C	CSc1nc2cc(C)nn2c(NOCc2ccccc2)c1C#N [compound 190]	–	> 115	–	–
174 to 176 °C	CSc1nc2cc(C)nn2c(Nc2cccc(C)c2)c1C#N [compound 191]	> 115	–	–	–
192 to 194 °C	CSc1nc2ccnn2c(Nc2ccccc2C)c1C#N [compound 203]	> 115	–	–	–
214 to 218 °C	CSc1nc2ccnn2c(NO)c1C#N [compound 205]	> 115	–	–	–
138 to 139 °C	CSc1nc2ccnn2c(NCCc2ccccn2)c1C#N [compound 206]	> 115	–	–	–
96 to 97 °C	CSc1nc2ccnn2c(NCCC2OCCO2)c1C#N [compound 210]	> 115	> 115	–	–
158 to 159 °C	CSc1nc2ccnn2c(Nc2ccc3c(c2)OCO3)c1C#N [compound 211]	> 115	> 115	–	–
184 to 185 °C	CSc1nc2ccnn2c(NCCc2ccncc2)c1C#N [compound 215]	> 115	–	–	–
180 to 182 °C	CSc1nc2ccnn2c(Nc2cccc([N+](=O)[O-])c2)c1C#N [compound 218]	> 115	> 115	–	–
123 °C	CCOC(=O)c1c(SC)nc2ccnn2c1NCc1ccncc1 [compound 221]	> 115	> 115	–	–
114 to 115 °C	CCOC(=O)c1c(SC)nc2ccnn2c1NCc1ccccc1 [compound 222]	> 115	–	–	–
156 to 157 °C	CCOC(=O)c1c(SC)nc2ccnn2c1Nc1cccc(C#N)c1 [compound 223]	> 115	> 115	–	–
178 °C	CCOC(=O)c1c(SC)nc2ccnn2c1Nc1ccc(C#N)cc1 [compound 224]	> 115	–	–	–
166 to 168 °C	CCOC(=O)c1c(SC)nc2ccnn2c1Nc1cccc([N+](=O)[O-])c1 [compound 225]	> 115	–	–	–
170 °C	CCOC(=O)c1c(SC)nc2ccnn2c1Nc1ccc([N+](=O)[O-])cc1 [compound 226]	> 115	> 115	–	–
